Measured values from patent US20090275610A1, “TRICYCLIC OPIOID MODULATORS” (priority 2005, published 2009).
Where two headings read alike, the source gives them in different places.

Columns and labels:
delta opioid receptor = biological target: T1, delta opioid receptor (Rattus norvegicus, UniProt P33533); experiment: Rat brain delta opioid receptor binding assay; settings: rat forebrain membranes, [3H]DPDPE or [3H]naltrindole, 25° C., 2.5 h
T1 construct: the forebrains were homogenized in Tris buffer in a Teflon®-glass homogenizer; from tissue; host or cells: forebrain of male Wistar rats (particulate membrane preparation)
T1 sequence (P33533 whole entry): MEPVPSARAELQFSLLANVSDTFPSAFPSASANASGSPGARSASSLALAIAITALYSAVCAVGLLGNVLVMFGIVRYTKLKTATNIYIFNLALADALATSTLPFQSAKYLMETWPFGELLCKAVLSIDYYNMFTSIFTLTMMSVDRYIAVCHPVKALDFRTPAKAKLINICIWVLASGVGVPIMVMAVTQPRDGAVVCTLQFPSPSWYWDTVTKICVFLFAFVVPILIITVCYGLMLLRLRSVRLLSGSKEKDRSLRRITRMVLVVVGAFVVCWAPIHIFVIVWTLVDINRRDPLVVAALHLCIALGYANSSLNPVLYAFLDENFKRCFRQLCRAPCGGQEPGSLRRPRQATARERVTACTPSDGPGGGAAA
Description: Rat Brain Delta Opioid Receptor Binding Assay
(§1) Procedure: Male, Wistar rats (150-250 g, VAF, Charles River, Kingston, N.Y.) were killed by CO2, and their brains removed and placed immediately in ice cold Tris HCl buffer (50 mM, pH 7.4). The forebrains were separated from the remainder of the brain by a coronal transection, beginning dorsally at the colliculi and passing ventrally through the midbrain-pontine junction. After dissection, the forebrains were homogenized in Tris buffer in a Teflon®-glass homogenizer. The homogenate was diluted to a concentration of 1 g of forebrain tissue per 80 mL Tris and centrifuged at 39,000×g for 10 min. The pellet was resuspended in the same volume of Tris buffer containing 5 mM MgCl2 with several brief pulses from a Polytron homogenizer. This particulate preparation was used for the delta opioid binding assays.
(§2) Analysis: The data from the scintillation counter were used to calculate either the % inhibition compared to control binding (when only a single concentration of test compound was evaluated) or a Ki value (when a range of concentrations was tested). Percent inhibition was calculated as: [(total dpm−test compound dpm)/(total dpm−nonspecific dpm)]*100. Kd and Ki values were calculated using GraphPad PRISM data analysis program.

mu opioid receptor = biological target: T2, mu opioid receptor (Rattus norvegicus, UniProt P33535); experiment: Rat brain mu opioid receptor binding assay; settings: rat forebrain membranes, [3H]DAMGO, 25° C., 2.5 h
T2 construct: the forebrains were homogenized in Tris buffer in a Teflon®-glass homogenizer; from tissue; host or cells: forebrain of male Wistar rats (particulate membrane preparation)
T2 sequence (P33535 whole entry): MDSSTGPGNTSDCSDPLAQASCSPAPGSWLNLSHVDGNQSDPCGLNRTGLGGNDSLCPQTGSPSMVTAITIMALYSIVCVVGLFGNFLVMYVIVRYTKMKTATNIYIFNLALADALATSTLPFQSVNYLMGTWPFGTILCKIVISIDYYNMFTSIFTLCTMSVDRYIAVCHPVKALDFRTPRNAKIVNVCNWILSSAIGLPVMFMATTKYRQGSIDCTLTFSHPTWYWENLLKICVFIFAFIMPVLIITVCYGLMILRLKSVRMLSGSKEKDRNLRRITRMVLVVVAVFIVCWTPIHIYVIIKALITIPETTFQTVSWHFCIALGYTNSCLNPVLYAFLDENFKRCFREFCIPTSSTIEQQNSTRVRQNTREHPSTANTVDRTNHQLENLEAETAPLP
Description: Rat Brain Mu Opioid Receptor Binding Assay
as §1
as §2, with “concentrations” for “concentrations was”

[1] = biological target: T3, delta opioid receptor (NG108-15 cell membranes) (Mus musculus, UniProt P32300); experiment: [35S]GTPγS binding assay in NG108-15 cell membranes (delta opioid); assay type: biochemical; settings: delta GTPγS binding EC50 (nM)
T3 construct: NG108-15 cell membranes were purchased from Applied Cell Sciences (Rockville, Md.); host or cells: NG108-15 cell membranes (purchased)
T3 sequence (P32300 whole entry): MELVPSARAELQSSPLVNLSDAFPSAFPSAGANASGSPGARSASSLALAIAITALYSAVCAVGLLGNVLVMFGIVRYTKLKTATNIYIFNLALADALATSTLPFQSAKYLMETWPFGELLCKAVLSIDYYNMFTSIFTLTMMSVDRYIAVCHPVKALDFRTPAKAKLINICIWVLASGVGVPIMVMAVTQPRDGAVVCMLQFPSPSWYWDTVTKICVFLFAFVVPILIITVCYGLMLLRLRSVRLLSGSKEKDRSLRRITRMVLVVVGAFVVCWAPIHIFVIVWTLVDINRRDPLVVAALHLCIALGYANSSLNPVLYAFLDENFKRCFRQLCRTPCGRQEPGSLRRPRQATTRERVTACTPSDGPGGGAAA
Description: Functional Assay: [^35S]GTPγS Binding Assay in NG108-15 Cell Membranes (Delta Opioid)
Methods: NG108-15 cell membranes were purchased from Applied Cell Sciences (Rockville, Md.). A sample (8 mg/mL) of membrane protein suspended in 10 mM TRIS-HCl pH 7.2, 2 mM EDTA, 10% sucrose. Membranes were maintained at 4-8° C. A 1 mL volume of membranes was added into 10 mL cold binding assay buffer. The assay buffer contained 50 mM Tris, pH 7.6, 5 mM MgCl2, 100 mM NaCl, 1 mM DTT and 1 mM EGTA. The membrane suspension was homogenized twice with a Polytron, and centrifuged at 3000 rpm for 10 min. The supernatant was then centrifuged at 18,000 rpm for 20 min. Ten mL assay buffer was added into the pellet containing tube. The pellet and buffer were mixed with a Polytron.
Incubation procedure: The pellet membranes (75 μg/mL) were preincubated with SPA (10 mg/mL) at 25° C. for 45 min in the assay buffer. The SPA (5 mg/mL) coupled with membranes (37.5 μg/mL) was then incubated with 0.1 nM [^35S]GTPγS in the same Tris buffer containing 100 μM GDP in total volume of 200 μL. Increasing concentrations of receptor agonists were used to stimulate [^35S]-GTPγS binding. The basal binding was tested in the absence of agonists and non-specific binding was tested in the presence of 10 μM unlabeled GTPγS. The data were analyzed on a Packard Top Count.
% of Basal=(stimulated−non specific)*100/(basal−non specific).
EC50 values were calculated using GraphPad Prism.

[2] = rDOR (Ki, nM): Rat delta opioid receptor binding constant
[3] = rMOR (Ki, nM): Rat mu opioid receptor binding constant
[4] = read-out: rDOR (Ki, nM): Rat delta opioid receptor binding constant
[5] = read-out: rMOR (Ki, nM): Rat mu opioid receptor binding constant

SMILES | Ki (delta opioid receptor; [2]) | Ki (mu opioid receptor; [3]) | Ki (delta opioid receptor; [4]) | Ki (mu opioid receptor; [5]) | EC50 [1]
O=C(N1C2CCC1CC(=C1c3ccccc3Oc3c(O)cccc31)C2)C(F)(F)F (single isomer, unassigned) [Cpd 5, 2,2,2-Trifluoro-1-[3-(4-hydroxy-xanthen-9-ylidene)-8-azabicyclo[3.2.1]oct-8-yl]-ethanone] | 2110 nM | 5620 nM | – | – | –
O=C(N1C2CCC1CC(=C1c3ccccc3Oc3c(O)cccc31)C2)C(F)(F)F (single isomer, unassigned) [Cpd 6, 2,2,2-Trifluoro-1-[3-(4-hydroxy-xanthen-9-ylidene)-8-azabicyclo[3.2.1]oct-8-yl]-ethanone] | 8500 nM | > 10000 nM | – | – | –
Oc1cccc2c1Oc1ccccc1C2=C1CC2CCC(C1)N2 (single isomer, unassigned) [Cpd 9, 9-(8-Azabicyclo[3.2.1]oct-3-ylidene)-9H-xanthen-4-ol] | 68.2 nM | 63.6 nM | – | – | –
NC(=O)c1cccc2c1Oc1ccccc1C2=C1C[C@H]2CC[C@@H](C1)N2C(=O)C(F)(F)F (single isomer, unassigned) [Cpd 36, (+)-9-[8-(2,2,2-Trifluoroacetyl)-8-azabicyclo[3.2.1]oct-3-ylidene]-9H-xanthene-4-carboxylic acid amide] | – | – | 1790 nM | > 10000 nM | –
NC(=O)c1cccc2c1Oc1ccccc1C2=C1C[C@H]2CC[C@@H](C1)N2C(=O)C(F)(F)F (single isomer, unassigned) [Cpd 38, (−)-9-[8-(2,2,2-Trifluoroacetyl)-8-azabicyclo[3.2.1]oct-3-ylidene]-9H-xanthene-4-carboxylic acid amide] | – | – | 6440 nM | > 10000 nM | –
NC(=O)c1cccc2c1Oc1ccccc1C2=C1CC2CCC(C1)N2 (single isomer, unassigned) [Cpd 39, 9-(8-Azabicyclo[3.2.1]oct-3-ylidene)-9H-xanthene-4-carboxylic acid amide] | 31.9 nM | 96.4 nM | – | – | 1240 nM
N=C(NO)c1cccc2c1Oc1ccccc1C2=C1CC2CCC(C1)N2 (single isomer, unassigned) [Cpd 42, 9-(8-Aza-bicyclo[3.2.1]oct-3-ylidene)-N-hydroxy-9H-xanthene-4-carboxamidine] | – | 56.5 nM | 237 nM | – | –
N=C(NO)c1cccc2c1Oc1ccccc1C2=C1CC2CCC(C1)N2 (single isomer, unassigned) [Cpd 43, 9-(8-Aza-bicyclo[3.2.1]oct-3-ylidene)-N-hydroxy-9H-xanthene-4-carboxamidine] | – | – | > 10000 nM | > 10000 nM | –
O=C(Nc1ccccc1)c1cccc2c1Oc1ccccc1C2=C1CC2CCC(C1)N2 (single isomer, unassigned) [Cpd 47, 9-(8-Azabicyclo[3.2.1]oct-3-ylidene)-9H-xanthene-4-carboxylic acid phenylamide] | 250 nM | 293 nM | – | – | –
Oc1cccc2c1Oc1ccccc1C2=C1CC2CCC(C1)N2Cc1cccnc1 (single isomer, unassigned) [Cpd 49, 9-(8-Pyridin-3-ylmethyl-8-azabicyclo[3.2.1]oct-3-ylidene)-9H-xanthen-4-ol] | 62.6 nM | 443 nM | – | – | –
CN1C2CCC1CC(=C1c3ccccc3Oc3c(O)cccc31)C2 (single isomer, unassigned) [Cpd 52, 9-(8-Methyl-8-azabicyclo[3.2.1]oct-3-ylidene)-9H-xanthen-4-ol] | 323 nM | 1320 nM | – | – | –
O=C(NCc1ccccc1)c1cccc2c1Oc1ccccc1C2=C1CC2CCC(C1)N2 (single isomer, unassigned) [Cpd 53, 9-(8-Azabicyclo[3.2.1]oct-3-ylidene)-9H-xanthene-4-carboxylic acid benzylamide] | 1130 nM | 2030 nM | – | – | –
O=C(NCCc1ccccc1)c1cccc2c1Oc1ccccc1C2=C1CC2CCC(C1)N2 (single isomer, unassigned) [Cpd 55, 9-(8-Azabicyclo[3.2.1]oct-3-ylidene)-9H-xanthene-4-carboxylic acid phenethylamide] | 100 nM | 200 nM | – | – | –
Oc1cccc2c1Oc1ccccc1C2=C1CC2CCC(C1)N2Cc1ccoc1 (single isomer, unassigned) [Cpd 57, 9-(8-Furan-3-ylmethyl-8-azabicyclo[3.2.1]oct-3-ylidene)-9H-xanthen-4-ol] | 246 nM | 36.5 nM | – | – | –
Oc1cccc2c1Oc1ccccc1C2=C1CC2CCC(C1)N2Cc1ccccn1 (single isomer, unassigned) [Cpd 59, 9-(8-Pyridin-2-ylmethyl-8-azabicyclo[3.2.1]oct-3-ylidene)-9H-xanthen-4-ol] | 0.07 nM | 0.39 nM | – | – | –
Oc1cccc2c1Oc1ccccc1C2=C1CC2CCC(C1)N2Cc1ccccn1 (single isomer, unassigned) [Cpd 60, 9-(8-Pyridin-2-ylmethyl-8-azabicyclo[3.2.1]oct-3-ylidene)-9H-xanthen-4-ol] | 0.01 nM | 0.01 nM | – | – | –
COc1cccc2c1Oc1ccccc1C2=C1CC2CCC(C1)N2 [Cpd 1] | – | – | 3800 nM | 1790 nM | –
COC(=O)c1cccc2c1Oc1ccccc1C2=C1CC2CCC(C1)N2C(=O)C(F)(F)F [Cpd 7, 9-[8-(2,2,2-Trifluoroacetyl)-8-azabicyclo[3.2.1]oct-3-ylidene]-9H-xanthene-4-carboxylic acid methyl ester] | > 10000 nM | > 10000 nM | – | – | –
CN(C)C(=O)c1cccc2c1Oc1ccccc1C2=C1CC2CCC(C1)N2 [Cpd 11, 9-(8-Azabicyclo[3.2.1]oct-3-ylidene)-9H-xanthene-4-carboxylic acid dimethylamide] | 3110 nM | 471 nM | – | – | –
CN(C)CCNC(=O)c1cccc2c1Oc1ccccc1C2=C1CC2CCC(C1)N2 [Cpd 15, 9-(8-Azabicyclo[3.2.1]oct-3-ylidene)-9H-xanthene-4-carboxylic acid (2-dimethylaminoethyl)-amide] | 1420 nM | 336 nM | – | – | –
CN1C2CCCC1CC(=C1c3ccccc3Oc3c(O)cccc31)C2 [Cpd 17, 9-(9-Methyl-9-azabicyclo[3.3.1]non-3-ylidene)-9H-xanthen-4-ol] | 132 nM | 221 nM | – | – | –
CN1CCC(=C2c3ccccc3Oc3c(O)cccc32)CC1 [Cpd 18, 9-(1-Methyl-piperidin-4-ylidene)-9H-xanthen-4-ol] | 330 nM | 4610 nM | – | – | –
Oc1cccc2c1Oc1ccccc1C2=C1CC2CCC(C1)N2Cc1csc2ccccc12 [Cpd 33] | – | – | 137 nM | 168 nM | –
Oc1cccc2c1Oc1ccccc1C2=C1CC2CCC(C1)N2Cc1cccc2cnccc12 [Cpd 35] | – | – | 180 nM | 286 nM | –
Clc1ccc(Nc2cccc3c2Oc2ccccc2C3=C2CC3CCC(C2)N3)cc1 [Cpd 61, [9-(8-Azabicyclo[3.2.1]oct-3-ylidene)-9H-xanthen-4-yl]-(4-chlorophenyl)-amine] | 395 nM | 3160 nM | – | – | –
c1cncc(Nc2cccc3c2Oc2ccccc2C3=C2CC3CCC(C2)N3)c1 [Cpd 62, [9-(8-Azabicyclo[3.2.1]oct-3-ylidene)-9H-xanthen-4-yl]-pyridin-3-yl-amine] | 108 nM | 159 nM | – | – | –
c1ccc(Nc2cccc3c2Oc2ccccc2C3=C2CC3CCC(C2)N3)cc1 [Cpd 64, [9-(8-Azabicyclo[3.2.1]oct-3-ylidene)-9H-xanthen-4-yl]-phenylamine] | 862 nM | 2420 nM | – | – | –
